In one data set the test system is rats. Description: 30-day daily treatment toxicity. Format: in vivo. As to conditions: daily treatment 30 days, doses up to 1g par kg et par jour. An excerpt: Un groupe de rats a été soumis à un traitement quotidien par le sel acide de calcium de l'acide 2-oxo-1,5- pentane dioique pendant une durée de 30 jours.
Data set [1] deals with système nerveux central de la souris. Briefly: Reduction of reserpine ptosis. Format: in vivo. As to conditions: souris, 0,5g par kg à 1g par kg per os, 1 hour after administration. The text has this:
(§1) Activité du sel acide de calcium de l'acide 2-oxo-1,5- pentane dioîque sur le système nerveux central de la souris.
1. Réduction du ptosis réserpinique

The test system is the same in data set [2]. Description: Antagonism of the muscle-relaxant action of chlorpromazine (CPZ). The format is in vivo.
Text: as §1
2. Antagonisme de l'action myorelaxante de la Chlorpromazine (CPZ)
La chlorpromazine induit une myorelaxation chez la souris. On constate une réduction de 37,5% pour une dose de 1g par kg et une réduction de 62,5% pour une dose de 2g par kg.

For data set [3] the test system is unchanged. Description: Rotarod test (rotating cylinder) after chlorpromazine. The format is in vivo. As to conditions: from the dose of 0,5g par kg.
Text: as §1
3. Test du "rotarod" (cylindre tournant)
Dans ce test, la souris tourne sur un cylindre animé d'un mouvement rotatif, perd l'équilibre et tombe après administration de chlorpromazine (CPZ).

Data set [4] has the same test system. Briefly: Reduction of barbiturate narcosis. The format is in vivo.
Text: as §1
4. Réduction de la narcose barbiturique
Les résultats de ce test se sont avérés positifs, chez la souris.

For data set [5] the test system is unchanged. Description: Reduction of reserpine hypothermia. Format: in vivo. As to conditions: doses between 0,5 and 1g par kg per os.
Text: as §1
5. Réduction de l'hypothermie réserpinique

Data set [6] shares this test system. Description: Hole-board test. Format: in vivo.
Text: as §1
6. Test de la planche à trous
Sur une planche percée de trous, la souris, parcourant la surface, explore les divers trous rencontrés.

Data set [7] has the same test system. Briefly: Motor activity. Format: in vivo.
Text: as §1
Ce test a montré que l'adminitration à des souris du sel conforme à l'invention, provoque une augmentation de leur activité motrice.

The test system is the same in data set [8]. Description: Catalepsy (prochlorpémazine-induced catatonia). Format: in vivo. As to conditions: catalepsy test.
Text: as §1
Ce test a montré que le sel conforme à l'invention s'oppose à l'activité catatonique de la prochlorpémazine.

Data set [9] is described as follows: Pharmacokinetic study with C14-labelled salt. The format is in vivo. Particulars: rats, C14-labelled molecule. An excerpt: Dans cette étude, on a administré à des rats le sel conforme à l'invention dont la molécule a été marquée au C^14 radioactif.
The next data set concerns patient. Briefly: Clinical test: corrective effects on hypoxia (chamber, 12,5% O2). The format is in vivo, homme. Particulars: acute dose 12g per os, hypoxia at 12,5% O2. An excerpt: 1. Effets correctifs du sel acide de calcium de l'acide 2-oxo 1,5-pentane dioïgue sur l'hypoxie
Le test est réalisé sur le patient après le passage de celui-ci en caisson sous une hypoxie à 12,5% d'O2.

In a further data set the test system is patients. Briefly: Clinical study: memory disorders, neurotic (anxiophobic) and psychasthenic states, versus placebo. The format is in vivo, homme. As to conditions: sixty patients, 4g daily in two doses versus placebo. The text has this: 2. Correction des troubles de la mémoire, des états névrotiques (anxiophobiques), et des états psychasténiques
Data set [10] is described as follows: Solubility in water at 20°C. The format is physicochemical. As to conditions: lithium salt.
A short description of data set [11]: Tests on the acid lithium salt (pharmacological and therapeutic properties). As to conditions: compared with the calcium salt.

“sel de calcium acide de l'acide 2-oxo-1,5- pentane dioïque”: the “anomalie dans les constantes biologiques, hématologiques et les examens histologiques de différents viscères” value in the data set with rats is given as “Aucune anomalie”. The “ptosis réserpinique” value in data set [1] is listed as “réduit de façon significative”. In addition, the “réduction (myorelaxation induite par la chlorpromazine)” value in data set [2] (dose 1g par kg) is listed as 37,5%; in data set [2] (dose 2g par kg) it was 62,5%. The “antagonisme du CPZ (rotarod)” value in data set [3] is reported as “antagonisme du CPZ”. The “réduction de la narcose barbiturique” value in [4] is “positifs”. Further, in [5], the “réduction de l'hypothermie réserpinique” value is “résultats positifs”. The “exploration (planche à trous) sous méprobamate” value in data set [6] (after a single treatment, méprobamate-induced decrease of exploration) was “inhibition de la diminution d'exploration”. The “activité exploratrice (planche à trous)” value in data set [6] (after three days of pretreatment, versus control animals) was “augmentation notable”. Moreover, in [7], the activité motrice entry is “augmentation”. Moreover, the “activité catatonique de la prochlorpémazine” value in data set [8] is “s'oppose”. In [9], the “passage à travers la barrière hématoencéphalique” value is on record as “passage de la molécule à travers la barrière hématoencéphalique”. In addition, in data set [9], the “principal métabolite d'élimination” value is reported as “acide glutamique”. Further, the “conversion au niveau cérébral” value in [9] (in the brain) is given as “conversion de celle-ci en acide gamma-aminobutyrique (GABA)”. Besides, in the data set with patient, the “effet correctif sur l'hypoxie” value is listed as “activateur efficace capable de contrebalancer l'effet d'une hypoxie”. Besides, the “efficacité à l'égard des troubles de la mémoire, états névrotiques (anxiophobiques) et états psychasténiques” value with patients was “excellente efficacité”.
For the substance “sel acide de lithium de l'acide 2-oxo-1,5- pentane dioïque [sel de lithium acide]”, the “solubilité dans l'eau à 20°C” value in data set [10] was 5,5 % en poids. Besides, the “propriétés pharmacologiques et thérapeutiques” value in data set [11] was “comparables à celles du sel de calcium”.

For the origin of these results see patent publication EP0073711A1, “Salts of 2-oxopentane-1,5-dicarboxylic acid, their preparation and pharmaceutical preparations containing these salts” (S.A. D[…] LEBAS (Société Anonyme), priority 1981, dated 1983).
